Assays:
[1] = 101.33 kPa, Crystal, relaxation calorimetry
[2] = molar heat capacity at constant pressure; settings: 101.33 kPa, Crystal, relaxation calorimetry

Oc1ncc(Cl)c(O)n1 [5-chloro-2,4-pyrimidinedione]
Settings	molar entropy, [1] [J/K/mol]	molar heat capacity at constant pressure, [2] [J/K/mol]
0.5 K	0.000378	0.000485
1 K	0.00108	0.00194
2 K	0.00473	0.0116
2.04 K	–	0.0119
2.26 K	–	0.0165
2.51 K	–	0.0224
2.79 K	–	0.0297
3 K	0.0135	0.0367
3.1 K	–	0.0407
3.44 K	–	0.0549
3.82 K	–	0.0739
4 K	0.0301	0.085
4.24 K	–	0.101
4.71 K	–	0.138
5 K	0.0569	0.164
5.24 K	–	0.188
5.81 K	–	0.257
6 K	0.0966	0.282
6.44 K	–	0.35
7 K	0.152	0.446
7.17 K	–	0.479
7.91 K	–	0.649
8 K	0.225	0.665
8.78 K	–	0.878
9 K	0.319	0.945
9.74 K	–	1.19
10 K	0.435	1.28
10.81 K	–	1.59
11.99 K	–	2.14
13.31 K	–	2.79
14.74 K	–	3.64
15 K	1.39	3.81
16.35 K	–	4.68
18.13 K	–	6.06
20 K	2.96	7.44
20.12 K	–	7.49
22.32 K	–	9.36
24.77 K	–	11.49
25 K	5.07	11.69
27.49 K	–	13.93
30 K	7.59	16.14
30.5 K	–	16.6
33.86 K	–	19.52
35 K	10.42	20.57
37.57 K	–	22.81
40 K	13.44	24.87
41.69 K	–	26.3
45 K	16.61	28.97
46.26 K	–	29.88
50 K	19.87	32.81
51.34 K	–	34.08
56.96 K	–	37.64
60 K	26.48	39.81
63.23 K	–	41.77
70 K	33.09	45.98
70.19 K	–	45.99
77.89 K	–	50.5
80 K	39.6	51.52
86.44 K	–	54.98
90 K	45.96	56.6
95.96 K	–	59.39
100 K	52.17	61.33
106.02 K	–	64.02
110 K	58.23	65.83
116.12 K	–	68.52
120 K	64.15	70.16
126.18 K	–	72.83
130 K	69.93	74.35
136.3 K	–	76.98
140 K	75.59	78.45
146.41 K	–	80.91
150 K	81.14	82.47
156.52 K	–	84.91
160 K	86.59	86.42
166.6 K	–	89.11
170 K	91.94	90.33
176.69 K	–	92.91
180 K	97.22	94.19
186.77 K	–	96.98
190 K	102.41	98.02
196.85 K	–	100.43
200 K	107.53	101.81
206.94 K	–	104.46
210 K	112.59	105.58
217.03 K	–	107.97
220 K	117.59	109.32
227.26 K	–	112.17
230 K	122.53	113.04
234.67 K	–	114.85
240 K	127.42	116.74
244.74 K	–	118.78
250 K	132.26	120.42
254.84 K	–	122.35
260 K	137.06	124.08
264.91 K	–	125.73
270 K	141.81	127.73
273.15 K	143.3	128.88
275 K	–	129.5
280 K	146.52	131.37
285.08 K	–	132.72
290 K	151.19	135
295.37 K	–	136.73
298.15 K	154.97	137.95
300 K	155.83	138.62
302.71 K	–	140.1

O=c1cc(Cl)[nH]c(=O)[nH]1 [6-chlorouracil]
Settings	molar entropy, [1] [J/K/mol]	molar heat capacity at constant pressure, [2] [J/K/mol]
0.5 K	0.00109	0.00126
1 K	0.00269	0.00405
1.93 K	–	0.0182
2 K	0.00944	0.0203
2.15 K	–	0.0242
2.38 K	–	0.0322
2.65 K	–	0.043
2.95 K	–	0.0584
3 K	0.0242	0.0602
3.27 K	–	0.0782
3.63 K	–	0.103
4 K	0.0508	0.135
4.04 K	–	0.139
4.48 K	–	0.186
4.98 K	–	0.247
5 K	0.0926	0.252
5.52 K	–	0.332
6 K	0.152	0.415
6.12 K	–	0.436
6.79 K	–	0.58
7 K	0.232	0.631
7.53 K	–	0.771
8 K	0.333	0.908
8.35 K	–	1.02
9 K	0.459	1.25
9.26 K	–	1.35
10 K	0.612	1.66
10.25 K	–	1.77
11.34 K	–	2.31
12.58 K	–	3.02
13.97 K	–	3.91
15 K	1.8	4.63
15.49 K	–	4.99
17.19 K	–	6.32
19.09 K	–	7.91
20 K	3.67	8.68
21.19 K	–	9.7
23.51 K	–	11.78
25 K	6.08	13.17
26.09 K	–	14.1
28.91 K	–	16.74
30 K	8.88	17.67
32.12 K	–	19.59
35 K	11.94	22.04
35.65 K	–	22.58
39.54 K	–	25.93
40 K	15.15	26.22
43.88 K	–	29.29
45 K	18.47	30.18
48.68 K	–	32.81
50 K	21.85	33.87
54.02 K	–	36.6
59.94 K	–	40.61
60 K	28.63	40.68
66.52 K	–	44.81
70 K	35.37	46.77
73.83 K	–	48.95
80 K	41.97	52.2
81.96 K	–	53.22
90 K	48.41	57.15
90.91 K	–	57.53
100 K	54.67	61.75
100.89 K	–	61.78
110 K	60.76	66.1
111.04 K	–	66.68
120 K	66.7	70.26
121.13 K	–	70.82
130 K	72.48	74.29
131.15 K	–	74.92
140 K	78.13	78.22
141.29 K	–	78.76
150 K	83.66	82.08
151.38 K	–	82.6
160 K	89.08	85.89
161.47 K	–	86.43
170 K	94.4	89.66
171.56 K	–	90.19
180 K	99.63	93.41
181.61 K	–	94.08
190 K	104.78	97.14
191.69 K	–	97.83
200 K	109.85	100.85
201.81 K	–	101.23
210 K	114.86	104.56
211.89 K	–	105.16
220 K	119.81	108.26
222 K	–	108.99
230 K	124.71	111.96
232.08 K	–	112.88
240 K	129.55	115.64
242.1 K	–	116.48
250 K	134.35	119.33
252.19 K	–	120.07
260 K	139.1	123
262.33 K	–	123.73
270 K	143.81	126.67
272.41 K	–	127.71
273.15 K	145.28	127.82
280 K	148.48	130.33
282.41 K	–	131.41
290 K	153.12	133.98
292.56 K	–	134.98
298.15 K	156.87	136.94
300 K	157.72	137.62
302.57 K	–	138.3

Source: the NIST ThermoML archive (doi:10.1016/j.tca.2016.04.013)
